# Experimental data reported in patent US20240382497A1, “PROPHYLACTIC OR THERAPEUTIC AGENT FOR HYPOXIC INJURY, ISCHAEMIA-REPERFUSION INJURY AND INFLAMMATION, CELL PROTECTION AGENT FOR TRANSPLANTATION, AND BIO-PRESERVATION AGENT” (priority 2018, published 2024).
# How the values were obtained:
# C57/BL6N male mice [1] = test: Core body temperature under the odor conditions of Example 14; format: in vivo, mouse; details: odor presentation conditions of Example 14
# Procedure: An influence of a thiazoline-related compound and an odor molecule that induces learned fear on the core body temperature was analyzed. A radio-telemetry device for monitoring biological parameters (manufactured by Physiotel) was surgically implanted in the abdomen of male C57/BL6N mice (about 3 months old). The mice were subjected to the following experiment after about 10 days of recovery period. […] The information of body temperature was recorded every 10 sec using Dataquest A.R.T. software (DataScience international). The value of the core body temperature change was calculated as the difference between the mean core body temperature for 10 min when water was presented and the mean core body temperature for 20 min when each odor molecule was presented, and the change in the core body temperature without odor was set to 0. […]
# Skin ischemia-reperfusion injury model mouse was generated as follows according to the method of Uchiyama et al. (Uchiyama et al., Sci Rep 5:9072, 2015). […] The condition of the skin on the back, which was pinched between magnets, was recorded by taking photographs every day. Based on the obtained images, the wound area was quantified with image analysis software (Photoshop, Adobe). Furthermore, changes in the core body temperature when the odor was presented under the same conditions as in this Example were measured by the same experimental method as in Example 2.
# Male C57/BL6N mice [2] = test: Heart rate on odor presentation (radio-telemetry); format: in vivo, mouse; details: filter paper scented with 271 μmol odor
# Procedure: An influence of a thiazoline-related compound and an odor molecule that induces learned fear on the heart rate was analyzed. A radio-telemetry device for monitoring biological parameters (manufactured by Physiotel) was surgically implanted in the abdomen of male C57/BL6N mice (about 3 months old). The mice were subjected to the following experiment after about 10 days of recovery period. Each mouse was placed in a test cage and, after acclimation for 10 min, a filter paper dropped with water was presented for 10 min, after which a filter paper scented with 271μmol of a thiazoline-related compound (2-methyl-2-thiazoline; 2MT) or an odor molecule that induces learned fear (anisole) was presented for 20 min. The information of heart rate was recorded every 10 sec using Dataquest A.R.T. software (DataScience international). The value of the heart rate change was calculated as the difference between the heart rate for 10 min when water was presented and the mean heart rate for 20 min when each odor molecule was presented, and the change in the heart rate without odor was set to 0. The mice presented with the odor that induces learned fear were trained to associate the anisole odor with electric shock one day before the measurement, whereby the mice learned to feel learned fear against the smell of anisole.
# [3] = tested on: cerebral ischemia-reperfusion injury model mouse; test: Cerebral ischemia-reperfusion injury, MAP2-unstained area; format: in vivo; details: about 80 mg/kg i.p. at the reperfusion, two days after reperfusion, versus saline
# Procedure: The bilateral common carotid arteries of about 3-month-old C57/BL6 mouse were ligated by clips to induce cerebral ischemia injury, and the blood was reperfused by removing the clips 30 min later. A thiazoline-related compound (2MT) solution (200 μl, about 80 mg/kg), or saline, as a control, was intraperitoneally administered at the reperfusion. Two days after the reperfusion, the brain tissue of the mouse was removed, brain sections were prepared, and the injured region was analyzed by antibody staining with Microtubule-associated protein 2 (MAP2).
# C57/BL6N male mice [4] = test: Respiratory rate on odor presentation (pulse oximeter); format: in vivo, mouse; details: filter paper scented with 271 μmol odor, 20 min
# Procedure: An influence of a thiazoline-related compound and an odor molecule that induces learned fear on the respiratory rate was analyzed. The respiratory rate was analyzed using a pulse oximeter (Mouse Oxplus; STARR Life Science). A pulse oximeter was attached to the neck of C57/BL6N male mice (about 3-month-old) from about 1 week before the test and the mice were acclimated by repeating this operation. The mice were anesthetized with pentobarbital (50 mg/kg, i.p.) 2 days before the test, and the neck hair was depilated with depilatory cream. On the day of testing, an oximeter probe was attached to the shaven neck. After confirming that the signal became stable, the no odor baseline was measured for 10 min, changes in the respiratory rate when the thiazoline-related compound (2MT) or neutral odor (Eugenol; Eug) was presented was measured for 20 min (each n=6). The odors were presented by placing filter papers scented with 271 μmol of odor in the test cage. The oximeter signal was obtained at 1 Hz.
# [5] = tested on: Trpa1 knockout mice and littermate hetero mice; test: Oxygen consumption on odor presentation, Trpa1 knockout and hetero mice; format: in vivo, mouse; details: two filter papers scented with 271 μmol
# Procedure: An influence of a thiazoline-related compound on the oxygen consumption was analyzed. The oxygen consumption was analyzed using an energy metabolism measurement device for small animals (ARCO-2000; ARCO SYSTEM). About 3-month-old C57/BL6N male mice were each placed in a measuring chamber and, after acclimation for about 2 hr, a thiazoline-related compound (2MT) was presented. The odors were presented by placing filter papers scented with 100 μl (104 mmol) of odor molecules in the measuring chamber. As a control, an experiment in which a filter paper dropped with saline was presented to the mice was also performed. The oxygen consumption was measured every one min. Mean oxygen consumption was calculated as the mean of 10 min before presenting odor and 20 min after presenting odor.
# The oxygen consumption was measured using an energy metabolism measurement device for small animals as in Example 8.About 3-month to 6-month-old Trpa1 knockout mice and littermate hetero mice were each placed in a measuring chamber of the energy metabolism measurement device for small animals and, after acclimation for about 2 hr, a thiazoline-related compound (2MT) was presented. The odor was presented by placing two filter papers scented with 271 μmol of thiazoline-related compound (2MT) in the measuring chamber.
# Male C57/BL6N mice [6] = test: Core body temperature on odor presentation (radio-telemetry); format: in vivo, mouse; details: filter paper scented with 271 μmol odor, 20 min, versus no odor
# Procedure: An influence of a thiazoline-related compound and an odor molecule that induces learned fear on the core body temperature was analyzed. A radio-telemetry device for monitoring biological parameters (manufactured by Physiotel) was surgically implanted in the abdomen of male C57/BL6N mice (about 3 months old). The mice were subjected to the following experiment after about 10 days of recovery period. Each mouse was placed in a test cage and, after acclimation for 10 min, a filter paper dropped with water was presented for 10 min, after which a filter paper scented with 271 μmol of a thiazoline-related compound (2-methyl-2-thiazoline; 2MT) or an odor molecule that induces learned fear (anisole) was presented for 20 min. The information of body temperature was recorded every 10 sec using Dataquest A.R.T. software (DataScience international). The value of the core body temperature change was calculated as the difference between the mean core body temperature for 10 min when water was presented and the mean core body temperature for 20 min when each odor molecule was presented, and the change in the core body temperature without odor was set to 0. The mice presented with the odor that induces learned fear were trained to associate the anisole odor with electric shock one day before the measurement, whereby the mice learned to feel learned fear against the smell of anisole.
smiles,measurement,setting,value
"CC1=NCCS1 [2MT, 2-methyl-2-thiazoline]",core body temperature,C57/BL6N male mice [1],remarkable decrease in the core body temperature
same,time to decrease in the heart rate to half,Male C57/BL6N mice [2],≤ 3 min
same,changes in the heart rate,"Male C57/BL6N mice [2]; 20 min, versus no odor",clear decrease in the heart rate
same,area of the injured region of the brain (not stained with MAP2),[3],reduce cerebral ischemia-reperfusion injury
same,respiratory rate,C57/BL6N male mice [4],reduced the respiratory rate by about half
same,oxygen consumption per body weight,[5]; Trpa1 knockout mice (Trpa1−/−),the oxygen consumption did not decrease
same,oxygen consumption per body weight,[5]; control mice (Trpa1+/−),the oxygen consumption was decreased
same,changes in the core body temperature,Male C57/BL6N mice [6],clear decrease in the core body temperature
